Laboratory results taken from ChEMBL document CHEMBL5126602, “Polo-like Kinase 1 Inhibitors in Human Cancer Therapy: Development and Therapeutic Potential” (J Med Chem, 2022).
Numbered stars: 1 amine (or outer) side, 2 acyl side, 3 side chain; on linkers, the order of the positions; unused ones are H or OH. Square brackets hold non-standard residues; d marks the D form. Peptide text beside a SMILES is read from it. X1 = O=C([C@H](Cc1cncn1CCCCc1cn(Cc2ccc(Oc3ccccc3)cc2F)nn1)N[*:1])[*:2]; pT = C[C@@H](OP(=O)(O)O)[C@H](N)C(=O)O

Experiments:
[1] = target: T1, Serine/threonine-protein kinase PLK1 (Homo sapiens, UniProt P53350); test: Inhibition of biotinylated PLHSpT peptide binding to n-terminal GST-tagged full length human PLK1 PBD preincubated with compound for 30 mins followed by peptide addition and measured after 1 hrs by time-resolved fluorescence energy transfer assay
T1 sequence (P53350 whole entry): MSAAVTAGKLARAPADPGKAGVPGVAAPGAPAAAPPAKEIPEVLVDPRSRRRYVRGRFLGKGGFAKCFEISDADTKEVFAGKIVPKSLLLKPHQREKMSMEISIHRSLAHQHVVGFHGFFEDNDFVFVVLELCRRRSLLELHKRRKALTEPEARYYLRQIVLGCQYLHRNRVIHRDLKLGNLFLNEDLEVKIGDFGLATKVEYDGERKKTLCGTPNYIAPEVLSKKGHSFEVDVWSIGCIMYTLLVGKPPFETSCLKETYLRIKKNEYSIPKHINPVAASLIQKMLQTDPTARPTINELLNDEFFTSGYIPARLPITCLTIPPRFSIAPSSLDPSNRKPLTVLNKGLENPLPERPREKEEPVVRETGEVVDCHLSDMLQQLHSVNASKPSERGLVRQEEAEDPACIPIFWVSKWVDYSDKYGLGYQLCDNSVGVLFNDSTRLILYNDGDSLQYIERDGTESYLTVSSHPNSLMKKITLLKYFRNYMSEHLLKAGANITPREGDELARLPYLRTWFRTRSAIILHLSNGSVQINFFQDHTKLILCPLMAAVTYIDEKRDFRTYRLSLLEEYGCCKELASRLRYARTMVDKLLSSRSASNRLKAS

[2] = system: HeLa; test: Antiproliferative activity against human HeLa cells assessed as inhibition of cell proliferation incubated for 72 hrs by MTT assay; type: functional, cell-based
[3] = target: T1, Serine/threonine-protein kinase PLK1; test: Inhibition of 5-carboxyfluoresceinGPMQSpTPLNG-OH peptide binding to human PLK1 (326 to 603 residues) PBD expressed in Rosetta BL21 (DE3) cells preincubated for 1 hrs with compound followed by peptide addition and measured immediately by fluorescence polarization assay
[4] = target: T1, Serine/threonine-protein kinase PLK1; test: Inhibition of 5-carboxyfluoresceinGPMQSpTPLNG-OH peptide binding to N-terminal His7-tagged human PLK1 (326 to 603 residues) PBD expressed in Escherichia coli BL21 (DE3) cells preincubated for 1 hrs with compound followed by peptide addition and measured after 1 hrs by fluorescence polarization assay
[5] = target: T2, Serine/threonine-protein kinase PLK2 (Homo sapiens, UniProt Q9NYY3); test: Inhibition of 5-carboxyfluorescein-GPMQTSpTPKNG-OH peptide binding to PLK2 (355 to 685 residues) PBD (unknown origin) preincubated for 1 hrs with compound followed by peptide addition and measured after 1 hrs by fluorescence polarization assay
T2 sequence (Q9NYY3 whole entry, the tested form may be a part): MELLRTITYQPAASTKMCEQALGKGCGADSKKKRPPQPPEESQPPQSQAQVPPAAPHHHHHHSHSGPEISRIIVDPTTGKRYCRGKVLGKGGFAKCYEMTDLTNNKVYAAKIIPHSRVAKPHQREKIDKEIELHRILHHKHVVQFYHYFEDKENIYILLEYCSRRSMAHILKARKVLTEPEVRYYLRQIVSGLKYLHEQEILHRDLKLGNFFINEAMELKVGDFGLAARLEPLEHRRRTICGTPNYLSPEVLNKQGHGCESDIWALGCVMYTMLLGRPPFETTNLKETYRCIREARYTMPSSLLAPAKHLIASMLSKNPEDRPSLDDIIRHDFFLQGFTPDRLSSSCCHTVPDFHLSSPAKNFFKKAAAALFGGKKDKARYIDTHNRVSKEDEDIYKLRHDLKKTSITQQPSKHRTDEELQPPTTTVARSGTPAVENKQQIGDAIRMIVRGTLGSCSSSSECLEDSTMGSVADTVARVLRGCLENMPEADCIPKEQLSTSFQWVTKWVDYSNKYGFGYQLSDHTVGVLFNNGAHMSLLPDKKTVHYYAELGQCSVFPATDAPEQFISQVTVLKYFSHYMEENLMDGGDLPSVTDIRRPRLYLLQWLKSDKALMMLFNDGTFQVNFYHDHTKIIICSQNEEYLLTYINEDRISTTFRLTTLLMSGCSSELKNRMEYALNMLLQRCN

[6] = target: T3, Serine/threonine-protein kinase PLK3 (Homo sapiens, UniProt Q9H4B4); test: Inhibition of 5-carboxyfluorescein-GPLATSpTPKNG-OH peptide binding to PLK3 (335 to 646 residues) PBD (unknown origin) at 100 uM preincubated for 1 hrs with compound followed by peptide addition and measured after 1 hrs by fluorescence polarization assay; conditions: time 2.0 hrs
Target sequence in this assay (Q9H4B4 whole entry, looked up, the tested form may be a part): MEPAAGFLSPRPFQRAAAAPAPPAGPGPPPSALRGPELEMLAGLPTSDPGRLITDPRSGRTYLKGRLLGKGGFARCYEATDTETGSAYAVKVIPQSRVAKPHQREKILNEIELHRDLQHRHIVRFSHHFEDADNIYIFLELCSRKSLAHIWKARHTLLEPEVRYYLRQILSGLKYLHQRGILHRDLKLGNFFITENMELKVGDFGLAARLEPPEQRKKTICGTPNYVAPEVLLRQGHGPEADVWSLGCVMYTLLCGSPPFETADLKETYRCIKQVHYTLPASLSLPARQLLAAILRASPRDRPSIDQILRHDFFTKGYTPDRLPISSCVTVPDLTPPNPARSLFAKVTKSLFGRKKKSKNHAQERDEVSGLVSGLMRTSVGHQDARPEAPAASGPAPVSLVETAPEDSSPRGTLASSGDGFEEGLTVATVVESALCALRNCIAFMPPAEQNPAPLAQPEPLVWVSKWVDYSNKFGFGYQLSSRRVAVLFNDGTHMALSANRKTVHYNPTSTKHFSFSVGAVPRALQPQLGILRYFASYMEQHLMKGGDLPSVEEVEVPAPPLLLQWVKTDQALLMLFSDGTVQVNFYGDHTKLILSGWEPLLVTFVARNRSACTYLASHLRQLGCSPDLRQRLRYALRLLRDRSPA

[7] = Half-life in rat liver microsomes; type: ADME, Microsome
[8] = Solubility of the compound; type: physicochemical
[9] = target: T1, Serine/threonine-protein kinase PLK1; test: Inhibition of PLK1 (unknown origin) in the presence of ATP by ADP-Glo-kinase assay
[10] = target: T2, Serine/threonine-protein kinase PLK2; test: Inhibition of PLK2 (unknown origin) in the presence of ATP by ADP-Glo-kinase assay
[11] = target: T3, Serine/threonine-protein kinase PLK3; test: Inhibition of PLK3 (unknown origin) in the presence of ATP by ADP-Glo-kinase assay
Target sequence in this assay (Q9H4B4 whole entry, the tested form may be a part): as the sequence (Q9H4B4 whole entry, looked up, the tested form may be a part) above

[12] = target: T2, Serine/threonine-protein kinase PLK2; test: Inhibition of Myc-tagged PLK2 PBD (unknown origin) expressed in HEK293T cells using 5CF-GPMQTSpTPKNG-NH2 as substrate preincubated for 30 mins followed by substrate addition and measured after 30 mins by fluorescence polarization assay
[13] = target: T1, Serine/threonine-protein kinase PLK1; test: Inhibition of biotinylated p-T78 peptide binding to human HA-EGFP-PLK1 expressed in HEK293-A cells using TMB as substrate incubated for 1 hrs by ELISA plate reader based analysis
[14] = target: T1, Serine/threonine-protein kinase PLK1; test: Inhibition of biotin labelled PoloBoxtide binding to GST/His-fused full length PLK1 (unknown origin) expressed in baculovirus infected Sf9 cells
[15] = target: T1, Serine/threonine-protein kinase PLK1; test: Inhibition of 5-carboxyfluoresceinGPMQSpTPLNG-OH peptide binding to PLK1 (326 to 603 residues) PBD (unknown origin) preincubated for 1 hrs with compound followed by peptide addition and measured after 1 hrs by fluorescence polarization assay
[16] = system: HeLa; test: Antiproliferative activity against human HeLa cells assessed as inhibition of cell proliferation incubated for 24 hrs by BCA assay; type: functional, cell-based
[17] = target: T1, Serine/threonine-protein kinase PLK1; test: Inhibition of PLK1 in thymidine synchronized human HeLa cells using casein as substrate preincubated with compound for 13 hrs followed by substrate addition and measured after 12 to 36 hrs in the presence of [gamma33P]ATP by autoradiography based Western blot analysis; type: cell-based
[18] = system: MCF7; test: Antiproliferative activity against human MCF7 cells assessed as reduction in cell proliferation incubated for 72 hrs; type: functional, cell-based; conditions: MCF7, 72 h
[19] = system: A-431; test: Antiproliferative activity against human A-431 cells assessed as reduction in cell proliferation incubated for 72 hrs; type: functional, cell-based; conditions: A-431, 72 h
[20] = system: SK-OV-3; test: Antiproliferative activity against human SK-OV-3 cells assessed as reduction in cell viability incubated for 72 hrs; type: functional, cell-based; conditions: SK-OV-3, 72 h
[21] = system: HCT-15; test: Antiproliferative activity against human HCT-15 cells assessed as reduction in cell viability incubated for 72 hrs; type: functional, cell-based; conditions: HCT-15, 72 h
[22] = system: U2OS; test: Antiproliferative activity against human U2OS cells assessed as reduction in cell viability incubated for 72 hrs; type: functional, cell-based
[23] = system: A549; test: Antiproliferative activity against human A549 cells assessed as reduction in cell viability incubated for 72 hrs; type: functional, cell-based; conditions: A549, 72 h
[24] = system: HT-29; test: Antiproliferative activity against human HT-29 cells assessed as reduction in cell viability incubated for 72 hrs; type: functional, cell-based; conditions: HT-29, 72 h
[25] = system: PC-3; test: Antiproliferative activity against human PC-3 cells assessed as reduction in cell viability incubated for 72 hrs; type: functional, cell-based; conditions: PC-3, 72 h
[26] = system: LN-229; test: Antiproliferative activity against human LN-229 cells assessed as reduction in cell viability incubated for 72 hrs; type: functional, cell-based; conditions: LN-229, 72 h
[27] = system: SKW 6.4; test: Antiproliferative activity against human SKW 6.4 cells assessed as reduction in cell viability incubated for 72 hrs; type: functional, cell-based; conditions: SKW 6.4, 72 h
[28] = system: Detroit 562; test: Antiproliferative activity against human Detroit 562 cells assessed as reduction in cell viability incubated for 72 hrs; type: functional, cell-based; conditions: Detroit 562, 72 h
[29] = target: T1, Serine/threonine-protein kinase PLK1; test: Inhibition of PLK1 PBD (unknown origin) dependent binding
[30] = system: MV4-11; test: Antiproliferative activity against human MV4-11 cells assessed as inhibition of cell growth incubated for 24 hrs by CCK-8 assay; type: functional, cell-based; conditions: MV4-11, 24 h
[31] = target: T1, Serine/threonine-protein kinase PLK1; test: Inhibition of human PLK1 in the presence of ATP
[32] = target: T2, Serine/threonine-protein kinase PLK2; test: Inhibition of 5-carboxyfluorescein-GPMQTSpTPKNG-OH peptide binding to C-terminal 6His-tagged human PLK2 (355 to 685 residues) PBD expressed in Rosetta BL21 (DE3) cells preincubated for 1 hrs with compound followed by peptide addition and measured immediately by fluorescence polarization assay
[33] = target: Serine/threonine-protein kinase PLK1 (Homo sapiens, UniProt P53350, T210D); test: Inhibition of PLK1 T210D mutant kinase domain (unknown origin) using casein as substrate preincubated for 3 hrs followed by substrate addition and measured after 30 mins in the presence of ATP by ADP-Glo kinase assay
Sequence of Serine/threonine-protein kinase PLK1 (Homo sapiens, UniProt P53350, T210D) (P53350 2-603 T210D limits assumed): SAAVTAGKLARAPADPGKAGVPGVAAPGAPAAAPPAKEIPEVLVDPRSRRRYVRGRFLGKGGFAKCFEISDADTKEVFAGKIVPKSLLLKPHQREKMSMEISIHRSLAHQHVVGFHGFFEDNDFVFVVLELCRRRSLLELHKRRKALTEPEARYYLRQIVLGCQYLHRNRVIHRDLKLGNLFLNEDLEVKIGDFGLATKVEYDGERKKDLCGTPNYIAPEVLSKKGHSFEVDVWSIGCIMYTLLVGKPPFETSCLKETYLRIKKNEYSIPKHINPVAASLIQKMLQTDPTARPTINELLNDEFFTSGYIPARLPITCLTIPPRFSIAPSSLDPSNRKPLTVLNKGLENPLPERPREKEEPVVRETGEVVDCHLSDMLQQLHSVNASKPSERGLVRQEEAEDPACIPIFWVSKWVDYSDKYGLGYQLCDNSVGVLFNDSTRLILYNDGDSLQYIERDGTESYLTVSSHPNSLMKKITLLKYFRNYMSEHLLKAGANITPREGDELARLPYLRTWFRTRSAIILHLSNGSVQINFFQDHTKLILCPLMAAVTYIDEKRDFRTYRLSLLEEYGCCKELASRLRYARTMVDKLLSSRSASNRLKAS

[34] = target: T1, Serine/threonine-protein kinase PLK1; test: Inhibition of 5-carboxyfluoresceinGPMQSpTPLNG-OH peptide binding to PLK1 (326 to 603 residues) PBD (unknown origin) preincubated for 1 hrs with compound followed by peptide addition and measured after 75 mins by fluorescence polarization assay
[35] = target: T2, Serine/threonine-protein kinase PLK2; test: Inhibition of 5-carboxyfluorescein-GPMQTSpTPKNG-OH peptide binding to PLK2 (355 to 685 residues) PBD (unknown origin) preincubated for 1 hrs with compound followed by peptide addition and measured after 75 min by fluorescence polarization assay
[36] = target: T3, Serine/threonine-protein kinase PLK3; test: Inhibition of 5-carboxyfluorescein-GPLATSpTPKNG-OH peptide binding to PLK3 (335 to 646 residues) PBD (unknown origin) at 100 uM preincubated for 1 hrs with compound followed by peptide addition and measured after 75 mins by fluorescence polarization assay; conditions: time 135.0 min
Target sequence in this assay (Q9H4B4 whole entry, looked up, the tested form may be a part): as the sequence (Q9H4B4 whole entry, looked up, the tested form may be a part) above

Compound: COc1c2c(cc3c1C(CC(=O)c1ccccn1)[N+](C)(C)CC3)OCO2 (stereo not drawn)
- IC50 [1]: 2.1 µM
- IC50 [2]: 22.4 µM

Compound: N#Cc1cccc(CN2C[C@@H]3C[C@H](C2)c2c(-c4ccc5ccccc5c4)ccc(=O)n2C3)c1
- IC50 [3]: 17.9 µM

Compound: CC1=C/C(=N/OC(=O)c2ccccc2C)C(C)=CC1=O
- IC50 [4]: 1.36 µM
- IC50 [5]: 14.2 µM
- inhibition [6]: 49%

Compound: O=c1c2cc(F)ccc2n2c(=S)[nH]nc2n1CCc1ccncc1
- half-life [7]: > 30 min
- solubility [8]: > 60 µg/mL

Compound: O=C1C[C@@H](c2ccccc2)Oc2cc(O)c(O)c(O)c21
- IC50 [9]: 6.3 µM
- IC50 [10]: 242 µM
- IC50 [11]: 1600 µM

Compound: N#Cc1ccc(CC(=O)NCCCn2c(=O)c3cc(F)ccc3n3c(=S)[nH]nc23)cc1
- half-life [7]: > 30 min
- solubility [8]: > 60 µg/mL

Compound: CC(=O)N1CCC[C@H]1C(=O)N[C@@H](CC(C)C)C(=O)N[C@@H](Cc1cn(CCCCCCCCc2ccccc2)nn1)C(=O)N[C@@H](CO)C(=O)N[C@H](C(N)=O)[C@@H](C)OP(=O)(O)O
- IC50 [12]: 0.69 µM

Compound: C[C@H](OP(=O)(O)O)[C@H](NC(=O)c1ccc2c(c1)nc(CCCCc1ccccc1)n2CCc1ccccc1)C(N)=O
- IC50 [13]: 4.5 µM

Compound: Cc1ccc(NC(=S)NCCNc2nccc(C(F)(F)F)n2)c(C)c1
- IC50 [14]: 1 µM

Compound: COc1cccc(CC(=O)NCCCn2c(=O)c3cc(F)ccc3n3c(=S)[nH]nc23)c1
- half-life [7]: 20.1 min
- solubility [8]: > 60 µg/mL

Compound: CC1=C/C(=N/OC(=O)c2ccc(CNC(=O)CCc3cn(CCCCCCOCCOCCNC(=O)CC45CC6CC(CC(C6)C4)C5)nn3)cc2C)C(C)=CC1=O
- IC50 [5]: 51.9 µM
- inhibition [6]: 47%
- IC50 [15]: 10.5 µM
- IC50 [16]: 14 µM

Compound: Cc1onc(-c2ccccc2)c1/C=C1\C(=O)Nc2ccccc21
- IC50 [14]: 20 µM

Compound: COc1ccc(CCNCc2ccc(OCc3ccc(Cl)nc3)c(OC)c2)cc1OC
- EC50 [17]: 0.0002 µM
- EC50 [18]: 12 µM
- EC50 [19]: 33 µM
- EC50 [20]: 5 µM
- EC50 [21]: 5 µM
- EC50 [22]: 5 µM
- EC50 [23]: 5 µM
- EC50 [24]: 5 µM
- EC50 [25]: 5 µM
- EC50 [26]: 5 µM
- EC50 [27]: 5 µM
- EC50 [28]: 5 µM

Compound: CCCCCCCCCC1=CO[C@]2(C[C@H](C(=O)O)[C@@](CC(=O)O)(C(=O)OCCCC)O2)C1=O
- IC50 [29]: 102 µM

Compound: COc1cc(O)c2c(=O)cc(-c3ccccc3)oc2c1OC [Moslosooflavone]
- IC50 [9]: 10.2 µM
- IC50 [10]: 952 µM
- IC50 [11]: 5120 µM

Compound: CC[C@@H]1C(=O)N(C)c2cnc(Nc3ccc(C(=O)NCCOCCOCCNc4cccc5c4C(=O)N(C4CCC(=O)NC4=O)C5=O)cc3OC)nc2N1C1CCCC1 (stereo partly drawn)
- IC50 [30]: 0.00448 µM

Compound: C=CCn1c(=O)c2cnc(Nc3ccc(N4CCN(C)CC4)cc3)nc2n1-c1cccc(C(C)(C)O)n1 [ADAVOSERTIB]
- IC50 [31]: 0.015 µM

Compound: O=c1c2cc(F)ccc2n2c(=S)[nH]nc2n1CCC(F)(F)F
- half-life [7]: > 30 min
- solubility [8]: > 60 µg/mL

Compound: CCCCCCCCCC1=CO[C@]2(C[C@H](C(=O)O)[C@@](CC(=O)O)(C(=O)O)O2)C1=O
- IC50 [29]: 128 µM

Compound: O=c1c2cc(F)ccc2n2c(=S)[nH]nc2n1CCc1ccccn1
- half-life [7]: > 30 min
- solubility [8]: > 60 µg/mL

Compound: CC1=CC(=O)C(C(C)C)=C/C1=N/OC(=O)c1ccccc1C
- IC50 [32]: 18.7 µM

Compound: O=c1cc(-c2ccccc2)oc2cc(O)c(O)c(O)c12 [BAICALEIN]
- IC50 [9]: 9 µM
- IC50 [10]: 314 µM
- IC50 [11]: 40 µM

Compound: O=c1c2cc(F)ccc2n2c(=S)[nH]nc2n1CC1CC1
- half-life [7]: > 30 min
- solubility [8]: > 60 µg/mL

Compound: O=C(O)[C@H]1O[C@@H](Oc2cc3oc(-c4ccccc4)cc(=O)c3c(O)c2O)[C@H](O)[C@@H](O)[C@@H]1O [BAICALIN]
- IC50 [33]: 3.61 µM

Compound: CC(=O)N1CCC[C@H]1C(=O)N[C@@H](CC(C)C)C(=O)N[C@@H](Cc1cncn1CCCCc1cn(Cc2ccc(Oc3ccccc3)cc2F)nn1)C(=O)N[C@@H](CO)C(=O)N[C@H](C(N)=O)[C@@H](C)OP(=O)(O)O (Ac-PL[X1]S[pT]-NH2)
- IC50 [12]: 5.9 µM

Compound: CC1=C/C(=N/OC(=O)c2ccc(CNC(=O)CCc3cn(CCCCCCOCCOCCNC(=O)[C@H](C)CCC45CC6CC(CC(C6)C4)C5)nn3)cc2C)C(C)=CC1=O
- IC50 [34]: 48.2 µM
- IC50 [35]: 54.8 µM
- inhibition [36]: 34%
- IC50 [16]: 9.2 µM
